# Laboratory results: US6365631B1, “Method of treating sleep apnoea” (Knoll Pharmaceutical Company, priority 1999, dated 2002)
# Legend:
# [1] = test system: patients suffering from clinically relevant obesity, many with serious sleep apnoea problems; experiment: clinical study, computer supported arousal/apnoea recognition in subset of 36 of 150 obese patients; type: in vivo, human; settings: Sibutramine 20 mg daily; week-12 vs week-1 (pre-treatment); subset of 36 patients
# Procedure: The beneficial effects of the compounds of the present invention at doses of 15 mg and 20 mg daily may also be confirmed in a double-blind, randomised, placebo-controlled clinical trial using questionnaires or by recording Holter ecgs with a Rozin/GeTeMed tape recorder device for 24 to 36 hours pre and post treatment period, using IEC-I type tapes. The ecg data may be computer-processed to study arousals.
# In a clinical study with 150 patients suffering from clinically relevant obesity, many of them with serious sleep apnoea problems, a subset of 36 patients was arbitrarily selected for computer supported arousal/apnoea recognition. Two consecutive nights were recorded at week-1 (pre-treatment) and week-12 of treatment, and the number of arousals per hour of sleep time was evaluated. […] Compared to placebo this is significant at a 5%-level (p=0.0227).
# [2] = test system: patients suffering from clinically relevant obesity (BMI>30) and sleep apnoea; experiment: open explorative study with 5 volunteer patients with obesity and sleep apnoea
# Procedure: Study design: An open explorative study with 5 volunteer patients suffering from clinically relevant obesity (BMI>30) and sleep apnoea was performed. […] No other control treatment was applied.
# Methods: Patients willing to lose weight who had obtained prescriptions for Reductil® (Knoll) from their doctor were asked to take part in this voluntary observational study. All patients were willing to change dietary habits during treatment, and to perform at least moderate physical training (twice a week at least half an hour). Patients were interviewed pre and post treatment, and their partners asked for their observations on snoring behaviour. The patients were asked for their own rating of severity of daytime sleepiness, and their partners for objective observations about frequency and heaviness of snoring as well as for their observations about apnoea signs.
# [3] = 5 patients, 10 or 15 mg daily, 6 to 14 weeks
structure (smiles),measurement,setting,value
"CC(C)CC(N(C)C)C1(c2ccc(Cl)cc2)CCC1 (stereo not drawn) [sibutramine, N,N-dimethyl-1-[1-(4-chlorophenyl)cyclobutyl]-3-methylbutylamine]",reduction of number of arousals per hour of sleep time,[1],clinically significant effect
same,mean weight loss under treatment,[2]; [3],14 kg
same,"weight loss, span over patients",[2]; [3],−7% to −22%
same,mean weight loss under treatment (percent),"[2]; 5 patients, 10 or 15 mg/kg daily, 6 to 14 weeks",14.6%
same,Mean BMI at end of treatment,"[2]; 5 patients, sibutramine 10 or 15 mg daily, 6 to 14 weeks, 34 before treatment",29
same,"arousal index Al, mean after treatment","[2]; mean 23,5 before treatment","10,0"
same,patients with clearly reduced daytime sleepiness,"[2]; of 5 patients, after treatment",4 out of 5
same,patients reporting improved ease of breathing with closed mouth,"[2]; of 5 patients, under treatment",3 out of 5
same,"decrease of arousal index, span over patients",[2]; pre vs post treatment,−25% to −67%
same,mean decrease of arousal index,[2]; pre vs post treatment,−57%
same,"daytime sleepiness scale after treatment, patient-reported","[2]; scale 0-3, 2,0 before treatment","0,6"
same,"snoring scale mean after treatment, observed by sleep companions","[2]; scale 0-3, mean score 2,2 before treatment",1
